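How tested: cells in 96-well plates exposed to compound for 48 hours at five concentrations. At the GI50, growth is halved. TGI is the concentration that stops growth completely.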
Tests used:
Assay in all cases: DTP human tumour cell line panel, 48 h
K-562 leukemia = test system: K-562 leukemia
COLO 205 colon = test system: COLO 205 colon
MOLT-4 leukemia = test system: MOLT-4 leukemia
NCI/ADR-RES ovarian = test system: NCI/ADR-RES ovarian
UACC-62 melanoma = test system: UACC-62 melanoma
SR leukemia = test system: SR leukemia
SK-OV-3 ovarian = test system: SK-OV-3 ovarian
MDA-MB-435 = test system: MDA-MB-435
SF-268 CNS = test system: SF-268 CNS
ACHN renal = test system: ACHN renal
OVCAR-4 ovarian = test system: OVCAR-4 ovarian
HOP-92 NSCLC = test system: HOP-92 NSCLC
MCF7 breast = test system: MCF7 breast
OVCAR-5 ovarian = test system: OVCAR-5 ovarian
SK-MEL-28 melanoma = test system: SK-MEL-28 melanoma
NCI-H460 lung = test system: NCI-H460 lung
SNB-75 CNS = test system: SNB-75 CNS
RXF 393 renal = test system: RXF 393 renal
T-47D breast = test system: T-47D breast
U251 CNS = test system: U251 CNS
HL-60(TB) leukemia = test system: HL-60(TB) leukemia
A549 NSCLC = test system: A549 NSCLC
SK-MEL-2 melanoma = test system: SK-MEL-2 melanoma
IGROV1 ovarian = test system: IGROV1 ovarian
SW-620 colon = test system: SW-620 colon
RPMI-8226 leukemia = test system: RPMI-8226 leukemia
M14 melanoma = test system: M14 melanoma
CAKI-1 renal = test system: CAKI-1 renal
NCI-H23 lung = test system: NCI-H23 lung
SK-MEL-5 melanoma = test system: SK-MEL-5 melanoma
HOP-62 NSCLC = test system: HOP-62 NSCLC
MALME-3M melanoma = test system: MALME-3M melanoma
CCRF-CEM leukemia = test system: CCRF-CEM leukemia
UACC-257 melanoma = test system: UACC-257 melanoma
SNB-19 CNS = test system: SNB-19 CNS
SF-539 CNS = test system: SF-539 CNS
MDA-MB-231 breast = test system: MDA-MB-231 breast
EKVX NSCLC = test system: EKVX NSCLC
LOX IMVI melanoma = test system: LOX IMVI melanoma
HCT-15 colon = test system: HCT-15 colon
HS 578T breast = test system: HS 578T breast
SF-295 CNS = test system: SF-295 CNS
HCT-116 colon = test system: HCT-116 colon
SN12C renal = test system: SN12C renal
OVCAR-8 ovarian = test system: OVCAR-8 ovarian
NCI-H226 lung = test system: NCI-H226 lung
OVCAR-3 ovarian = test system: OVCAR-3 ovarian
KM12 colon = test system: KM12 colon
HCC-2998 colon = test system: HCC-2998 colon
NCI-H522 lung = test system: NCI-H522 lung
TK-10 renal = test system: TK-10 renal
UO-31 renal = test system: UO-31 renal
BT-549 breast = test system: BT-549 breast
786-0 renal = test system: 786-0 renal
DU-145 prostate = test system: DU-145 prostate
A498 renal = test system: A498 renal
PC-3 prostate = test system: PC-3 prostate

CCN1C(=O)CS/C1=N/NC(=O)C(O)(c1ccccc1)C1C=CC=CC1 (stereo not given)
TGI (K-562 leukemia): > 10 µM
TGI (COLO 205 colon): > 10 µM
TGI (MOLT-4 leukemia): > 10 µM
TGI (NCI/ADR-RES ovarian): > 10 µM
TGI (UACC-62 melanoma): > 10 µM
TGI (SR leukemia): > 10 µM
TGI (SK-OV-3 ovarian): > 10 µM
TGI (MDA-MB-435): > 10 µM
TGI (SF-268 CNS): > 10 µM
TGI (ACHN renal): > 10 µM
TGI (OVCAR-4 ovarian): > 10 µM
TGI (HOP-92 NSCLC): > 10 µM
TGI (MCF7 breast): > 10 µM
TGI (OVCAR-5 ovarian): > 10 µM
TGI (SK-MEL-28 melanoma): > 10 µM
TGI (NCI-H460 lung): > 10 µM
TGI (SNB-75 CNS): > 10 µM
TGI (RXF 393 renal): > 10 µM
TGI (T-47D breast): > 10 µM
TGI (U251 CNS): > 10 µM
TGI (HL-60(TB) leukemia): > 10 µM
TGI (A549 NSCLC): > 10 µM
TGI (SK-MEL-2 melanoma): > 10 µM
TGI (IGROV1 ovarian): > 10 µM
TGI (SW-620 colon): > 10 µM
TGI (RPMI-8226 leukemia): > 10 µM
TGI (M14 melanoma): > 10 µM
TGI (CAKI-1 renal): > 10 µM
TGI (NCI-H23 lung): > 10 µM
TGI (SK-MEL-5 melanoma): > 10 µM
TGI (HOP-62 NSCLC): > 10 µM
TGI (MALME-3M melanoma): > 10 µM
TGI (CCRF-CEM leukemia): > 10 µM

C1=C2CNCC3=Cc4ccc5ccccc5c4OC23Oc2c1ccc1ccccc21
GI50 (K-562 leukemia): 2.95 µM
TGI (K-562 leukemia): 21.2 µM
GI50 (UACC-257 melanoma): 12.6 µM
TGI (UACC-257 melanoma): 38.7 µM
GI50 (COLO 205 colon): 2.09 µM
TGI (COLO 205 colon): 4.23 µM
GI50 (MOLT-4 leukemia): 2.86 µM
TGI (MOLT-4 leukemia): 10.6 µM
GI50 (NCI/ADR-RES ovarian): 2.1 µM
TGI (NCI/ADR-RES ovarian): 6.06 µM
GI50 (SNB-19 CNS): 6.95 µM
TGI (SNB-19 CNS): 29.3 µM
GI50 (UACC-62 melanoma): 5.05 µM
TGI (UACC-62 melanoma): 21.7 µM
GI50 (SR leukemia): 2.2 µM
TGI (SR leukemia): 5.4 µM
GI50 (SK-OV-3 ovarian): 3.41 µM
TGI (SK-OV-3 ovarian): 12.8 µM
GI50 (SF-539 CNS): 3.36 µM
TGI (SF-539 CNS): 14.9 µM
GI50 (MDA-MB-231 breast): 9.34 µM
TGI (MDA-MB-231 breast): 27.2 µM
GI50 (EKVX NSCLC): 5.81 µM
TGI (EKVX NSCLC): 34.1 µM
GI50 (LOX IMVI melanoma): 2.43 µM
TGI (LOX IMVI melanoma): 7.48 µM
GI50 (HCT-15 colon): 3.9 µM
TGI (HCT-15 colon): 22.6 µM
GI50 (HS 578T breast): 2.24 µM
TGI (HS 578T breast): 10.4 µM
GI50 (SF-268 CNS): 5.64 µM
TGI (SF-268 CNS): 22.1 µM
GI50 (SF-295 CNS): 3.07 µM
TGI (SF-295 CNS): 15.6 µM
GI50 (HCT-116 colon): 3.01 µM
TGI (HCT-116 colon): 13.1 µM
GI50 (OVCAR-4 ovarian): 4.71 µM
TGI (OVCAR-4 ovarian): 19.8 µM
GI50 (SN12C renal): 4.22 µM
TGI (SN12C renal): 20.1 µM
GI50 (OVCAR-8 ovarian): 2.99 µM
TGI (OVCAR-8 ovarian): 14.9 µM
GI50 (HOP-92 NSCLC): 2.86 µM
TGI (HOP-92 NSCLC): 17.1 µM
GI50 (MCF7 breast): 2.83 µM
TGI (MCF7 breast): 12.7 µM
GI50 (NCI-H226 lung): 10.6 µM
TGI (NCI-H226 lung): 27.6 µM
GI50 (SK-MEL-28 melanoma): 7.38 µM
GI50 (NCI-H460 lung): 3.27 µM
TGI (NCI-H460 lung): 13.1 µM
GI50 (OVCAR-3 ovarian): 2.34 µM
TGI (OVCAR-3 ovarian): 5.5 µM
GI50 (SNB-75 CNS): 2.32 µM
TGI (SNB-75 CNS): 11.5 µM
GI50 (KM12 colon): 3.83 µM
TGI (KM12 colon): 16.3 µM
GI50 (HCC-2998 colon): 3.99 µM
TGI (HCC-2998 colon): 19.7 µM
GI50 (NCI-H522 lung): 3.01 µM
TGI (NCI-H522 lung): 13.1 µM
GI50 (TK-10 renal): 9.08 µM
TGI (TK-10 renal): 27.4 µM
GI50 (RXF 393 renal): 1.79 µM
TGI (RXF 393 renal): 6.16 µM
GI50 (UO-31 renal): 3.54 µM
TGI (UO-31 renal): 21.5 µM
GI50 (T-47D breast): 8.28 µM
TGI (T-47D breast): 23.2 µM
GI50 (BT-549 breast): 11.3 µM
TGI (BT-549 breast): 40.7 µM
GI50 (786-0 renal): 5.1 µM
TGI (786-0 renal): 31.5 µM
GI50 (U251 CNS): 3.26 µM
TGI (U251 CNS): 14.8 µM
GI50 (HL-60(TB) leukemia): 2.69 µM
TGI (HL-60(TB) leukemia): 7.68 µM
GI50 (A549 NSCLC): 4.48 µM
TGI (A549 NSCLC): 20.5 µM
GI50 (DU-145 prostate): 3.29 µM
TGI (DU-145 prostate): 11.1 µM
GI50 (SK-MEL-2 melanoma): 5.47 µM
TGI (SK-MEL-2 melanoma): 22.8 µM
GI50 (IGROV1 ovarian): 9.59 µM
TGI (IGROV1 ovarian): 28.7 µM
GI50 (A498 renal): 3.87 µM
TGI (A498 renal): 17 µM
GI50 (SW-620 colon): 2.52 µM
TGI (SW-620 colon): 10.5 µM
GI50 (RPMI-8226 leukemia): 5.44 µM
TGI (RPMI-8226 leukemia): 65.3 µM
GI50 (M14 melanoma): 2.17 µM
TGI (M14 melanoma): 5.08 µM
GI50 (PC-3 prostate): 3.5 µM
TGI (PC-3 prostate): 18.2 µM
GI50 (CAKI-1 renal): 3.29 µM
TGI (CAKI-1 renal): 20.7 µM
GI50 (NCI-H23 lung): 6.94 µM
TGI (NCI-H23 lung): 32 µM
GI50 (SK-MEL-5 melanoma): 3.15 µM
TGI (SK-MEL-5 melanoma): 13.9 µM
GI50 (HOP-62 NSCLC): 4.47 µM
TGI (HOP-62 NSCLC): 16.7 µM
GI50 (MALME-3M melanoma): 12.5 µM
TGI (MALME-3M melanoma): 38.5 µM
GI50 (CCRF-CEM leukemia): 3.65 µM
TGI (CCRF-CEM leukemia): > 100 µM

Cc1c(C(=O)OCc2ccccc2)[n+](=O)c2cc(F)c(F)cc2n1[O-]
TGI (K-562 leukemia): > 100 µM
TGI (UACC-257 melanoma): 4 µM
TGI (COLO 205 colon): 9.62 µM
TGI (MOLT-4 leukemia): 5.5 µM
TGI (NCI/ADR-RES ovarian): > 100 µM
TGI (SNB-19 CNS): 3.87 µM
TGI (SR leukemia): 3.19 µM
TGI (SF-539 CNS): 5.75 µM
TGI (MDA-MB-435): 3.94 µM
TGI (HCT-15 colon): > 100 µM
TGI (HS 578T breast): 2.97 µM
TGI (SF-268 CNS): 4.53 µM
TGI (SF-295 CNS): 4.06 µM
TGI (HCT-116 colon): > 100 µM
TGI (ACHN renal): 3.85 µM
TGI (OVCAR-4 ovarian): 3.53 µM
TGI (MCF7 breast): 6.32 µM
TGI (NCI-H226 lung): 6.74 µM
TGI (OVCAR-5 ovarian): > 100 µM
TGI (SK-MEL-28 melanoma): 4.07 µM
TGI (NCI-H460 lung): 6.6 µM
TGI (SNB-75 CNS): 4.68 µM
TGI (KM12 colon): 39.4 µM
TGI (HCC-2998 colon): 4.68 µM
TGI (NCI-H522 lung): 3.96 µM
TGI (TK-10 renal): 37.7 µM
TGI (UO-31 renal): 3.36 µM
TGI (T-47D breast): 4.86 µM
TGI (BT-549 breast): 3.62 µM
TGI (786-0 renal): > 100 µM
TGI (HL-60(TB) leukemia): 3.53 µM
TGI (SK-MEL-2 melanoma): 3.51 µM
TGI (IGROV1 ovarian): 3.3 µM
TGI (A498 renal): 3.12 µM
TGI (RPMI-8226 leukemia): > 100 µM
TGI (CAKI-1 renal): 3.92 µM
TGI (NCI-H23 lung): 6.27 µM
TGI (HOP-62 NSCLC): > 100 µM
TGI (MALME-3M melanoma): 4.48 µM
TGI (CCRF-CEM leukemia): > 100 µM

Source: PubChem BioAssay (NCI)
